Assay results reported in US20070078148A1, “Agents for preventing and/or treating higher brain dysfunctions” (Kyowa Hakko Kogyo Co., Ltd., priority 2003, published 2007).
Marks after values point to notes of the source that are not given here.

Legend:
Type in all cases: in vivo, rat
[1] = system: Wistar female rats with bilateral ligation of the common carotid arteries; experiment: Maze-learning test in rats prepared by bilateral ligation of the common carotid arteries; details: FIG. 1
Method: Experiment was carried out using 10 Wistar female rats (body weight 210-310 g) for one group.
Under anesthesia with pentobarbital, the necks of rats were incised and the bilateral common carotid arteries were ligated (ligated rats). Separately, the necks of rats were incised but the bilateral common carotid arteries were not ligated (sham operation rats). Under anesthesia with pentobarbital, the rat was fixed on a brain-fixing apparatus for rat (Narishige; SR-6). Hydrogen electrodes (Unique Medical; UHE-100, IS needle type) were inserted into a brain coordinate (A2.0, L2.0, D-2.0). Hydrogen indifferent electrode (Unique Medical) was placed on the rat's neck. An artificial respiration was applied to the rat through a respiratory apparatus (Shinano Seisakusyo; SN-480-7), through which about 40 mL of hydrogen gas was forcibly inhaled 2 or 3 times at intervals of about 15 minutes. […]
Running for the maze-learning test was performed twice. […] At that time, the frequency of selection of the lanes required for obtaining the 4 hollows of milk was recorded up to 16th round of selection.
The maze-learning test was started from 4 weeks after the bilateral ligation of the common carotid arteries. […] The lanes on which blocks were placed in the first running were determined according to each rat and were maintained constantly during the test period. […]

SD male rats = experiment: Test for learning of active avoidance (shuttle box, conditioned avoidance behavior); details: 1 hour before the test; for Avoidance rate (%): average in 10 rats, Solvent 90.8
Method: Experiment was carried with using 10 SD male rats (body weight: 220-280 g) for one group.
Using a shuttle box apparatus consisting of two boxes (TK-401S; Unicom), the rats were made to learn and train (escape training) conditioned avoidance behavior. In one trial in the escape training, an alarm stimulus by light and buzzer sound as a conditioned stimulus was given to the rats for 8 seconds. […] Repetition of the trial was conducted at interval times of 5 seconds, and the escape training was repeated 50 trials/1 training/1 day for 10 days.
The test compound was used as a suspension in injectable distilled water containing 0.3% Tween-80 (by Otsuka Pharmaceutical Co., Ltd.; 0.3% Tween-80 solution) and orally administered to each of the rats at a dose of 10 mL/kg 1 hour before the test (Test compound-administered group). Separately, 0.3% Tween-80 solution alone was orally administered to each of the rats at a dose of 10 mL/kg 1 hour before the test (Solvent-administered group).
For analysis of the test results, various parameters were inputted in a personal computer (NEC; PC-9821Xe) and the avoidance rate (%) (average in 10 rats; the rats which took avoidance behavior by an alarm stimulus was regarded as successful escape; the avoidance rate when the rat succeeded in escaping all 50 trials was regarded as 100%) and the change of the total reaction latency (the time required for the completion of the whole trial) were compared with those of Solvent-administered group. The analysis was carried out by a Steel-test.

albino female rats = experiment: Test for learning of passive avoidance (scopolamine-induced impairment of memory); details: for Rate of the rats exhibiting passive avoidance behavior (%) / Rate of the rats exhibiting passive avoidance behavior (rats/total): 2 hours after administration
Method: Experiment was carried out using 32 albino female rats (body weight: about 100 g) for one group.
Test for learning of passive avoidance was conducted in a test box (40 cm×31 cm×29 cm) in which a stainless steel grid was spread on the floor so that an electric shock of 1.1 mA can be give randomly. In the test box, a plastic plate (15 cm×5 cm) of 0.5 cm thickness was placed at a corner to cover the floor; and the test box comprised a mechanism that when a rat placed on the plate steps down on the floor grid, the rat results in receiving an electric shock. Usually, the rat attacked by an electric shock immediately gets back on the plastic plate but tries to get down on the floor; then, the rat is attacked by an electric shock again. Usually, the rat gradually changes its behavior with repetition of the shock (learning and training), resulting in staying on the plastic plate (passive avoidance behavior).
After the learning and training, the rats keeping the memory were selected and used for the test based on the memory-keeping test as mentioned below.
The test compound was used as a suspension thereof in distilled water containing 0.3% Tween-80; and scopolamine was used as a solution thereof in distilled water (by Sigma).
To each of the rats which learned the passive avoidance behavior, immediately after learning, 1 mg/kg (2 mL/kg volume) of scopolamine (subcutaneous administration) and 2 mL/kg volume of a test compound (oral administration) was administered simultaneously (Test compound-administered group); and 2 hours after administration, the rats were evaluated whether they kept memory of learning of the passive avoidance behavior. Separately, to each of the rats which learned the passive avoidance behavior, immediately after learning, 2 mL/kg volume of 0.3% Tween-80 solution alone was orally administered, and the rats were referred to as Solvent-administered group; while in the same manner, the rats to which 1 mg/kg of scopolamine (2 mL/kg volume) each were administered subcutaneously, were referred to as Scopolamine-administered group.

Wistar (Han) male rats = experiment: Test for learning a delayed alternating problem (non-matching to sample, Skinner box); details: 0.3 mg/kg oral once a day
Method: The test was carried out in a manner similar to the method as described in Drug Dev. Res., 35, p.83-95 (1996).
Experiment was carried out using 10 Wistar (Han) male rats (body weight 200-250 g) for one group.
A Skinner box (30 cm×25 cm×30 cm) equipped with 3 pull-type lever (at the center, left and right sides) connected to a feeding vessel (supplying 45 mg diet pellet) was used in the experiment. The control of the test condition and the data accumulation were automatically conducted by connecting with a MED.PC program system.
Each rat received learning and training of lever pushing, and thereafter learning and training of a delayed alternating problem. In the learning and training of lever pushing, the rat learned and was trained so that the diet could be obtained by pushing any one of the center, left and right pull-type levers. In the subsequent learning and training of delayed alternating problem, the rat learned and was trained that the diet could be obtained by pushing any one of the left and right levers at first, and then the pushed lever was withdrawn; then, 5 seconds after that, both of the left and right levers were presented, but the diet was supplied only when the opposite side lever of the one pushed previously was pushed.
The test compound was used as a suspension thereof in injectable distilled water containing 0.5% methylcellulose (MC) (Otsuka Pharmaceutical Co.) and was administered orally to each of the rats which learned and trained the lever pushing at a dose of 10 mL/kg volume once a day from the start of learning and training of a delayed alternating problem continuously for a week (Test compound-administered group). Separately, to each of the rats which learned and trained the lever pushing, 0.5% MC solution alone was orally administered at a dose of 10 mL/kg volume once a day from the start of learning and training of a delayed alternating problem continuously for 1 week, and the rats were referred to as Solvent-administered group.
The accuracy rate for the reaction was indicated by the rate (%) of correctly selecting the left or right lever (average of 10 rats), and the test results were analyzed by one-way ANOVA-Student's t test.

[2] = 0.3 mg/kg oral with scopolamine 1 mg/kg s.c.
[3] = 3.0 mg/kg oral with scopolamine 1 mg/kg s.c.
[4] = 30 mg/kg oral with scopolamine 1 mg/kg s.c.

SMILES | Decrease of the learning results (lane selection frequency, second running) caused by bilateral ligation of the common carotid arteries ([1]; 1 mg/kg oral one hour before first trial, p<0.025 vs Solvent-administered group) | Decrease of the learning results (lane selection frequency, second running) caused by bilateral ligation of the common carotid arteries ([1]; 3 mg/kg oral one hour before first trial, p<0.005 vs Solvent-administered group) | Time required for completion of the whole trial (sec) (SD male rats; 0.3 mg/kg oral, Solvent 99.1) | Time required for completion of the whole trial (sec) (SD male rats; 3.0 mg/kg oral, Solvent 99.1) | Rate of the rats exhibiting passive avoidance behavior (%) (albino female rats; [2]) | Rate of the rats exhibiting passive avoidance behavior (rats/total) (albino female rats; [2]) | Rate of the rats exhibiting passive avoidance behavior (%) (albino female rats; [3]) | Rate of the rats exhibiting passive avoidance behavior (rats/total) (albino female rats; [3]) | Rate of the rats exhibiting passive avoidance behavior (%) (albino female rats; [4]) | Rate of the rats exhibiting passive avoidance behavior (rats/total) (albino female rats; [4]) | Rate of the rats exhibiting the passive avoidance behavior in comparison with Scopolamine-administered group (albino female rats; administered simultaneously with scopolamine, p<0.05 Two-tailed Chi Square test) | Accuracy Rate for the reaction everyday (%) (Mean ± Standard deviation) (Wistar (Han) male rats; 1st day, Solvent 48.3 ± 2.9) | Accuracy Rate for the reaction everyday (%) (Mean ± Standard deviation) (Wistar (Han) male rats; 3rd day, Solvent 39.4 ± 2.9) | Accuracy Rate for the reaction everyday (%) (Mean ± Standard deviation) (Wistar (Han) male rats; 5th day, Solvent 47.7 ± 2.1) | Accuracy rate for the reaction in a week (%) (Mean ± Standard deviation) (Wistar (Han) male rats; in a week, Solvent 45.4 ± 1.6, 0.3 mg/kg) | Time required for completion of the whole trial (SD male rats; 0.03 mg/kg oral, Solvent 99.1) | Avoidance rate (%) (SD male rats; 0.03 mg/kg oral) | Avoidance rate (%) (SD male rats; 0.3 mg/kg oral) | Rate of the rats exhibiting passive avoidance behavior (rats/total) (albino female rats; scopolamine alone 1 mg/kg s.c., Solvent 26/32)
COc1cc(/C=C/c2nc3c(c(=O)n(C)c(=O)n3C)n2C)cc(OC)c1OC [Compound 1] | significantly improved | significantly improved | significantly reduced | significantly reduced | – | – | – | – | – | – | – | – | – | – | – | – | – | – | –
CCn1c(=O)c2c(nc(/C=C/c3ccc(OC)c(OC)c3)n2C)n(CC)c1=O [Compound 2] | – | – | 64.9 * sec | 65.3 ** sec | (53.1%) | 17/32* | (75.0%) | 24/32* | (84.4%) | 27/32* | significantly increased | 49.7 ± 2.1 NS % | 49.4 ± 3.4 % | 60.0 ± 3.0 % | 50.6±1.5% | 81.2 s | 96.2% | 97.2% | –
CN1[C@@H]2C[C@@H](OC(=O)[C@H](CO)c3ccccc3)C[C@H]1[C@@H]1O[C@@H]12 [Scopolamine, scopolamine, reference compound] | – | – | – | – | – | – | – | – | – | – | – | – | – | – | – | – | – | – | 4/32
